Where “and” joins values, the source holds several entries; their conditions need not be identical. Equal entries are not always repeated. Numbers after ± are expanded uncertainties.
Key:
[1] = 101 kPa, Liquid
[2] = refractive index (Na D-line) (dimensionless); details: 298.15 K; 101.33 kPa; Liquid; Standard Abbe refractometry
[3] = xn = mol fraction of the nth substance listed; details: 101 kPa, Liquid

c1ccccc1 [benzene]
[1]
Details | mass density [kg/m3]
298.15 K | 873.62 ± 0.42
328.15 K | 841.52 ± 0.48

Details | refractive index
[2] | 1.4979 ± 0.0007

c1ccccc1 [benzene] + CCC(=O)c1ccccc1
[3], x1 = 1
Details | mass density [kg/m3]
298.15 K | 873.62 ± 0.42
328.15 K | 841.52 ± 0.48

CCCCc1ccccc1 [butylbenzene]
[1]
Details | mass density [kg/m3]
298.15 K | 856.23 ± 0.48
328.15 K | 832.29 ± 0.52

Details | refractive index
[2] | 1.4874 ± 0.0007

CCCCc1ccccc1 [butylbenzene] + CCC(=O)c1ccccc1
[3], x1 = 1
Details | mass density [kg/m3]
298.15 K | 856.23 ± 0.48
328.15 K | 832.29 ± 0.52

CCC(=O)c1ccccc1 [ethyl phenyl ketone]
[1]
Details | mass density
298.15 K | 1005.24 ± 0.22 kg/m3 and 1005.26 ± 0.22 kg/m3 and 1005.29 ± 0.22 kg/m3
328.15 K | 979.5 ± 0.24 kg/m3 [middle of 4 runs]

Details | refractive index
[2] | 1.5245 ± 0.0007

CCC(=O)c1ccccc1 [ethyl phenyl ketone] + CCCCc1ccccc1
mass density [kg/m3], [3]
Details | 298.15 K | 328.15 K
x2 = 0 | 1005.29 ± 0.22 | 979.54 ± 0.24
x2 = 0.0906 | 989.98 ± 0.23 | 964.4 ± 0.27
x2 = 0.1842 | 974.56 ± 0.26 | 949.13 ± 0.3
x2 = 0.2739 | 960.14 ± 0.29 | 934.89 ± 0.33
x2 = 0.3688 | 945.31 ± 0.32 | 920.21 ± 0.36
x2 = 0.4531 | 932.45 ± 0.34 | 907.51 ± 0.38
x2 = 0.5519 | 917.76 ± 0.37 | 893 ± 0.41
x2 = 0.6164 | 908.4 ± 0.38 | 883.77 ± 0.43
x2 = 0.711 | 894.97 ± 0.41 | 870.51 ± 0.45
x2 = 0.8053 | 881.97 ± 0.43 | 857.68 ± 0.48
x2 = 0.9044 | 868.69 ± 0.46 | 844.57 ± 0.5

CCC(=O)c1ccccc1 [ethyl phenyl ketone] + CCc1ccccc1
mass density [kg/m3], [3]
Details | 298.15 K | 328.15 K
x2 = 0 | 1005.29 ± 0.22 | 979.5 ± 0.24
x2 = 0.1025 | 992.18 ± 0.23 | 966.3 ± 0.27
x2 = 0.1878 | 981.02 ± 0.24 | 955.11 ± 0.29
x2 = 0.2741 | 969.49 ± 0.26 | 943.55 ± 0.31
x2 = 0.3668 | 956.85 ± 0.29 | 930.84 ± 0.33
x2 = 0.4491 | 945.37 ± 0.31 | 919.32 ± 0.36
x2 = 0.5504 | 930.94 ± 0.33 | 904.84 ± 0.38
x2 = 0.6359 | 918.44 ± 0.36 | 892.32 ± 0.4
x2 = 0.7246 | 905.22 ± 0.38 | 879.02 ± 0.43
x2 = 0.831 | 888.99 ± 0.41 | 862.68 ± 0.46
x2 = 0.9093 | 876.76 ± 0.43 | 850.4 ± 0.48

CCC(=O)c1ccccc1 [ethyl phenyl ketone] + Cc1ccccc1
mass density [kg/m3], [3]
Details | 298.15 K | 328.15 K
x2 = 0 | 1005.26 ± 0.22 | 979.48 ± 0.24
x2 = 0.09253 | 995.05 ± 0.21 | 969.14 ± 0.26
x2 = 0.1872 | 984.09 ± 0.23 | 958.07 ± 0.27
x2 = 0.2777 | 973.13 ± 0.24 | 946.96 ± 0.29
x2 = 0.3634 | 962.24 ± 0.26 | 935.91 ± 0.31
x2 = 0.4547 | 950.09 ± 0.28 | 923.57 ± 0.33
x2 = 0.5572 | 935.66 ± 0.31 | 908.94 ± 0.36
x2 = 0.6402 | 923.36 ± 0.33 | 896.42 ± 0.38
x2 = 0.7203 | 910.9 ± 0.35 | 883.78 ± 0.4
x2 = 0.8278 | 893.2 ± 0.38 | 865.77 ± 0.44
x2 = 0.9099 | 878.86 ± 0.41 | 851.18 ± 0.46

CCC(=O)c1ccccc1 [ethyl phenyl ketone] + c1ccccc1
mass density [kg/m3], [3]
Details | 298.15 K | 328.15 K
x2 = 0 | 1005.24 ± 0.22 | 979.46 ± 0.24
x2 = 0.1079 | 995.49 ± 0.21 | 969.44 ± 0.26
x2 = 0.1982 | 986.83 ± 0.22 | 960.49 ± 0.27
x2 = 0.2725 | 979.24 ± 0.23 | 952.7 ± 0.28
x2 = 0.3691 | 968.74 ± 0.25 | 941.82 ± 0.3
x2 = 0.4557 | 958.59 ± 0.27 | 931.35 ± 0.32
x2 = 0.5205 | 950.57 ± 0.28 | 922.98 ± 0.33
x2 = 0.6278 | 936.19 ± 0.3 | 907.95 ± 0.36
x2 = 0.7441 | 919.01 ± 0.33 | 889.82 ± 0.39
x2 = 0.8198 | 906.77 ± 0.35 | 876.8 ± 0.41
x2 = 0.8966 | 893.38 ± 0.38 | 862.6 ± 0.44

CCc1ccccc1 [ethylbenzene]
[1]
Details | mass density [kg/m3]
298.15 K | 862.26 ± 0.46
328.15 K | 835.86 ± 0.51

Details | refractive index
[2] | 1.4931 ± 0.0007

CCc1ccccc1 [ethylbenzene] + CCC(=O)c1ccccc1
[3], x1 = 1
Details | mass density [kg/m3]
298.15 K | 862.26 ± 0.46
328.15 K | 835.86 ± 0.51

Cc1ccccc1 [toluene]
[1]
Details | mass density [kg/m3]
298.15 K | 862.25 ± 0.44
328.15 K | 834.25 ± 0.5

Details | refractive index
[2] | 1.4941 ± 0.0007

Cc1ccccc1 [toluene] + CCC(=O)c1ccccc1
[3], x1 = 1
Details | mass density [kg/m3]
298.15 K | 862.25 ± 0.44
328.15 K | 834.25 ± 0.5

— the NIST ThermoML archive (doi:10.1016/j.jct.2005.01.007)
